Experimental data published in patent US6740642B2, “Macrolides with antibacterial activity” (BAsilea Parmaceutica AG, priority 2000, dated 2004).
≈ marks a conversion by molar mass, not a printed value. Read-outs that look alike come from different tables or passages of the source.

Tests used:
H. influenzae Christy = assay: MIC, agar dilution, HTM medium; type: cell-based, Haemophilus influenzae
Description: (§1) The biological activities of compounds of the present invention against Haemophilus influenzae have been determined by standard agar dilution method using HTM medium (National Committee for Clinical Laboratory Standards. 1997. Methods for dilution antimicrobial susceptibility tests for bacteria that grow aerobically, 4th edition. Approved standard M7-A4. National Committee for Clinical Laboratory Standards, Wayne, Pa.).

H. influenzae 12214 = assay: MIC, agar dilution, HTM medium; type: cell-based, Haemophilus influenzae
Description: as §1

H. influenzae Rd KW20 = assay: MIC, agar dilution, HTM medium; type: cell-based, Haemophilus influenzae
Description: as §1

H. influenzae 1 = assay: MIC, agar dilution, HTM medium; type: cell-based, Haemophilus influenzae
Description: as §1

H. influenzae H36 ODL = assay: MIC, agar dilution, HTM medium; type: cell-based, Haemophilus influenzae
Description: as §1

H. influenzae 3457 = assay: MIC, agar dilution, HTM medium; type: cell-based, Haemophilus influenzae
Description: as §1

H. influenzae 2947 = assay: MIC, agar dilution, HTM medium; type: cell-based, Haemophilus influenzae
Description: as §1

H. influenzae 23145 = assay: MIC, agar dilution, HTM medium; type: cell-based, Haemophilus influenzae
Description: as §1

H. influenzae H20 HDL = assay: MIC, agar dilution, HTM medium; type: cell-based, Haemophilus influenzae
Description: as §1

H. influenzae 11 = assay: MIC, agar dilution, HTM medium; type: cell-based, Haemophilus influenzae
Description: as §1

H. influenzae H28 HEL = assay: MIC, agar dilution, HTM medium; type: cell-based, Haemophilus influenzae
Description: as §1

H. influenzae ATCC 49247 = assay: MIC, agar dilution, HTM medium; type: cell-based, Haemophilus influenzae
Description: as §1

H. influenzae B 1501 = assay: MIC, agar dilution, HTM medium; type: cell-based, Haemophilus influenzae
Description: as §1

H. influenzae 4139 = assay: MIC, agar dilution, HTM medium; type: cell-based, Haemophilus influenzae
Description: as §1

H. influenzae 3640 = assay: MIC, agar dilution, HTM medium; type: cell-based, Haemophilus influenzae
Description: as §1

H. influenzae 3201 = assay: MIC, agar dilution, HTM medium; type: cell-based, Haemophilus influenzae
Description: as §1

H. influenzae H13 LAH = assay: MIC, agar dilution, HTM medium; type: cell-based, Haemophilus influenzae
Description: as §1

H. influenzae QK 50 = assay: MIC, agar dilution, HTM medium; type: cell-based, Haemophilus influenzae
Description: as §1

H. influenzae ATCC 9334 = assay: MIC, agar dilution, HTM medium; type: cell-based, Haemophilus influenzae
Description: as §1

H. influenzae QK 12/87 = assay: MIC, agar dilution, HTM medium; type: cell-based, Haemophilus influenzae
Description: as §1

H. influenzae 23369 = assay: MIC, agar dilution, HTM medium; type: cell-based, Haemophilus influenzae
Description: as §1

S. aureus 745 = assay: MIC, standard microdilution; type: cell-based, Staphylococcus aureus
Description: (§2) The antibacterial activities of the compounds have been determined by standard microdilution technique (National Committee for Clinical Laboratory Standards. 1997. Methods for dilution antimicrobial susceptibility tests for bacteria that grow aerobically, 4th edition. Approved standard M7-A4. National Committee for Clinical Laboratory Standards, Wayne, Pa.).

S. aureus ATCC29213 = assay: MIC, standard microdilution; type: cell-based, Staphylococcus aureus
Description: as §2

S. aureus 1086 = assay: MIC, standard microdilution; type: cell-based, Staphylococcus aureus
Description: as §2

E. coli ATCC25922 = assay: MIC, standard microdilution; type: cell-based
Description: as §2

[1] = tested on: P. aeruginosa ATCC27853 (+Ery. 32 μg/ml); assay: MIC, standard microdilution; type: cell-based
Description: as §2

St. pneumoniae 1/4 = assay: MIC, standard microdilution; type: cell-based, Streptococcus pneumoniae
Description: as §2

St. pneumoniae SL199T = assay: MIC, standard microdilution; type: cell-based, Streptococcus pneumoniae
Description: as §2

St. pneumoniae 12288 = assay: MIC, standard microdilution; type: cell-based, Streptococcus pneumoniae
Description: as §2

St. pneumoniae 1/1 = assay: MIC, standard microdilution; type: cell-based, Streptococcus pneumoniae
Description: as §2

[2] = Haemophilus influenzae, read-out: MIC
[3] = Staphylococcus aureus, read-out: minimum inhibitory concentration (MIC)
[4] = Streptococcus pneumoniae, read-out: minimum inhibitory concentration (MIC)

CC[C@H]1OC(=O)[C@H](C)C(=O)[C@H](C)[C@@H](O[C@@H]2O[C@H](C)C[C@H](N(C)C)[C@H]2O)[C@](C)(OC)C[C@@H](C)C(=O)[C@H](C)[C@H]2[C@H](SCCn3ccc(=O)[nH]c3=O)C(=O)O[C@@]21C [Compound I-6, (3S,3aR,4R,6R,8R,9R,10R,12R,15R,15aS)-15-Ethyloctahydro-8-methoxy-4,6,8,10,12,15a-hexamethyl-3-[[2-[2,4-1H,3H-pyriminedione-1-yl]ethyl]-thio]-9-[[3,4,6-trideoxy-3-(dimethylamino)-β-D-xylo-hexopyranosyl]oxy]-2H-furo[2,3-c]oxacyclotetradecin-2,5,11,13(3H,6H,12H)-tetrone]
MIC (H. influenzae Christy): 2 µg/mL (≈ 2.56 µM) | MIC (H. influenzae 12214): 4 µg/mL (≈ 5.12 µM) | MIC (H. influenzae Rd KW20): 2 µg/mL (≈ 2.56 µM) | MIC (H. influenzae 1): 4 µg/mL (≈ 5.12 µM) | MIC (H. influenzae H36 ODL): 4 µg/mL (≈ 5.12 µM) | MIC (H. influenzae 3457): 0.25 µg/mL (≈ 0.32 µM) | MIC (H. influenzae 2947): 4 µg/mL (≈ 5.12 µM) | MIC (H. influenzae 23145): 4 µg/mL (≈ 5.12 µM) | MIC (H. influenzae H20 HDL): 1 µg/mL (≈ 1.28 µM) | MIC (H. influenzae 11): 4 µg/mL (≈ 5.12 µM) | MIC (H. influenzae H28 HEL): 2 µg/mL (≈ 2.56 µM) | MIC (H. influenzae ATCC 49247): 2 µg/mL (≈ 2.56 µM) | MIC (H. influenzae B 1501): 2 µg/mL (≈ 2.56 µM) | MIC (H. influenzae 4139): 2 µg/mL (≈ 2.56 µM) | MIC (H. influenzae 3640): 2 µg/mL (≈ 2.56 µM) | MIC (H. influenzae 3201): 4 µg/mL (≈ 5.12 µM) | MIC (H. influenzae H13 LAH): 2 µg/mL (≈ 2.56 µM) | MIC (H. influenzae QK 50): 2 µg/mL (≈ 2.56 µM) | MIC (H. influenzae ATCC 9334): 2 µg/mL (≈ 2.56 µM) | MIC (H. influenzae QK 12/87): 1 µg/mL (≈ 1.28 µM) | MIC (H. influenzae 23369): 4 µg/mL (≈ 5.12 µM) | minimum inhibitory concentration (MIC) (S. aureus 745): >16 µg/mL | minimum inhibitory concentration (MIC) (S. aureus ATCC29213): <=0.12 μg/ml | minimum inhibitory concentration (MIC) (S. aureus 1086): <=0.12 μg/ml | minimum inhibitory concentration (MIC) (E. coli ATCC25922): >16 µg/mL | minimum inhibitory concentration (MIC) [1]: >16 µg/mL | minimum inhibitory concentration (MIC) (St. pneumoniae 1/4): <=0.12 μg/ml | minimum inhibitory concentration (MIC) (St. pneumoniae SL199T): 1 µg/mL (≈ 1.28 µM) | minimum inhibitory concentration (MIC) (St. pneumoniae 12288): 4 µg/mL (≈ 5.12 µM) | minimum inhibitory concentration (MIC) (St. pneumoniae 1/1): <=0.12 μg/ml

CC[C@H]1OC(=O)[C@H](C)C(=O)[C@H](C)[C@@H](O[C@@H]2O[C@H](C)C[C@H](N(C)C)[C@H]2O)[C@](C)(OC)C[C@@H](C)C(=O)[C@H](C)[C@H]2N(CCCCn3cnc(-c4cccnc4)c3)C(=O)O[C@]12C [Telithromycin (4), telithromycin]
MIC (H. influenzae Christy; [2]): 4 µg/mL (≈ 4.93 µM) | MIC (H. influenzae 12214; [2]): 4 µg/mL (≈ 4.93 µM) | MIC (H. influenzae Rd KW20; Haemophilus influenzae, RDKW20, read-out: MIC): 4 µg/mL (≈ 4.93 µM) | MIC (H. influenzae 1; [2]): 4 µg/mL (≈ 4.93 µM) | MIC (H. influenzae H36 ODL; Haemophilus influenzae, H36ODL, read-out: MIC): 4 µg/mL (≈ 4.93 µM) | MIC (H. influenzae 3457; [2]): 0.25 µg/mL (≈ 0.308 µM) | MIC (H. influenzae 2947; [2]): 4 µg/mL (≈ 4.93 µM) | MIC (H. influenzae 23145; [2]): 4 µg/mL (≈ 4.93 µM) | MIC (H. influenzae H20 HDL; Haemophilus influenzae, H20HDL, read-out: MIC): 2 µg/mL (≈ 2.46 µM) | MIC (H. influenzae 11; [2]): 4 µg/mL (≈ 4.93 µM) | MIC (H. influenzae H28 HEL; Haemophilus influenzae, H28HEL, read-out: MIC): 2 µg/mL (≈ 2.46 µM) | MIC (H. influenzae ATCC 49247; Haemophilus influenzae, ATCC49247, read-out: MIC): 4 µg/mL (≈ 4.93 µM) | MIC (H. influenzae B 1501; Haemophilus influenzae, B1501, read-out: MIC): 2 µg/mL (≈ 2.46 µM) | MIC (H. influenzae 4139; [2]): 2 µg/mL (≈ 2.46 µM) | MIC (H. influenzae 3640; [2]): 2 µg/mL (≈ 2.46 µM) | MIC (H. influenzae 3201; [2]): 4 µg/mL (≈ 4.93 µM) | MIC (H. influenzae H13 LAH; Haemophilus influenzae, H13LAH, read-out: MIC): 2 µg/mL (≈ 2.46 µM) | MIC (H. influenzae QK 50; Haemophilus influenzae, QK50, read-out: MIC): 2 µg/mL (≈ 2.46 µM) | MIC (H. influenzae ATCC 9334; Haemophilus influenzae, ATCC9334, read-out: MIC): 2 µg/mL (≈ 2.46 µM) | MIC (H. influenzae QK 12/87; Haemophilus influenzae, QK12/87, read-out: MIC): 1 µg/mL (≈ 1.23 µM) | MIC (H. influenzae 23369; [2]): 4 µg/mL (≈ 4.93 µM) | MIC (S. aureus 745; [3]): > 64 µg/mL | MIC (S. aureus ATCC29213; [3]): ≤ 0.12 µg/mL | MIC (S. aureus 1086; [3]): ≤ 0.12 µg/mL | MIC (E. coli ATCC25922; Escherichia coli, read-out: minimum inhibitory concentration (MIC)): 16 µg/mL (≈ 19.7 µM) | minimum inhibitory concentration (MIC) [1]: >16 µg/mL | MIC (St. pneumoniae 1/4; [4]): ≤ 0.12 µg/mL | MIC (St. pneumoniae SL199T; [4]): ≤ 0.12 µg/mL | MIC (St. pneumoniae 12288; [4]): 0.25 µg/mL (≈ 0.308 µM) | MIC (St. pneumoniae 1/1; [4]): ≤ 0.12 µg/mL
